Values of other authors in patent US12569571B2, “Salt responsive nanogels and nanoparticles” (HOWARD UNIVERSITY, priority 2016, dated 2026).

Details: studies have shown

Structure (SMILES): CNC [dimethylamine]
- pKa (apparent pKa for PEI): about 10
